Measured values published in ChEMBL document CHEMBL3596143, “Identification of tanshinone IIA as a natural monoacylglycerol lipase inhibitor by combined in silico and in vitro approach” (Medchemcomm, 2014).

Key:
[1] = molecular target: T1, Monoglyceride lipase (Homo sapiens) (UniProt Q99685); conditions: 2 mM
T1 sequence (whole entry): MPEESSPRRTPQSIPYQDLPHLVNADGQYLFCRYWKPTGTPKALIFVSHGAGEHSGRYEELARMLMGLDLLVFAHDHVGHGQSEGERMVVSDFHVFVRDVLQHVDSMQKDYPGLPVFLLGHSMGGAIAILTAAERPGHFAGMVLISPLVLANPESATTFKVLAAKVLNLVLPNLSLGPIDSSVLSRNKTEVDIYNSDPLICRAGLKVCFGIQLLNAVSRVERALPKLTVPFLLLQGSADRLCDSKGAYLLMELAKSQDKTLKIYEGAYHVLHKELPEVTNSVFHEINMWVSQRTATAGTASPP
Description: Inhibition of MAGL (unknown origin) at 2 mM after 10 mins relative to control

[2] = molecular target: T1, Monoglyceride lipase (Homo sapiens); assay: Inhibition of MAGL (unknown origin) at […] after 10 mins relative to control
[3] = molecular target: T1, Monoglyceride lipase (Homo sapiens); assay: Inhibition of MAGL (unknown origin) at 250 uM after 10 mins relative to control
[4] = molecular target: T1, Monoglyceride lipase (Homo sapiens); assay: Inhibition of MAGL (unknown origin) at 500 uM after 10 mins relative to control
[5] = molecular target: T1, Monoglyceride lipase (Homo sapiens); assay: Inhibition of MAGL (unknown origin) at 125 uM after 10 mins relative to control
[6] = molecular target: T2, Monoglyceride lipase (Homo sapiens, UniProt Q99685); assay: (§1) Inhibition of MAGL (unknown origin) after 10 mins
T2 sequence (Q99685 whole entry): T1 sequence (whole entry)

[7] = molecular target: T1, Monoglyceride lipase (Homo sapiens); assay: as §1

Row | SMILES | inhibition [2] [%] | inhibition [3] [%] | inhibition [4] [%] | inhibition [5] [%] | also measured
1 | O=C(Oc1ccc([N+](=O)[O-])cc1)N1CCC(C(O)(c2ccc3c(c2)OCO3)c2ccc3c(c2)OCO3)CC1 |  |  |  |  | inhibition [1]: 94%
2 | O=c1c(-c2ccc(O)cc2)coc2c([C@@H]3O[C@H](CO)[C@@H](O)[C@H](O)[C@H]3O)c(O)ccc12 | 52 |  |  |  | 
3 | CC1(C)CC[C@]2(C(=O)O)CC[C@]3(C)C(=CC[C@@H]4[C@@]5(C)CC[C@H](O)C(C)(C)[C@@H]5CC[C@]43C)[C@@H]2C1 | 1 |  |  |  | 
4 | Cc1coc2c1C(=O)C(=O)c1c-2ccc2c(C)cccc12 | 58 | 15 | 31 | 12 | 
5 | CC1(C)OC(=O)C=C[C@]2(C)[C@H]3CC[C@@]4(C)[C@H](c5ccoc5)OC(=O)[C@H]5O[C@]54[C@]3(C)C(=O)C[C@@H]12 | 4 |  |  |  | 
6 | Cc1coc2c1C(=O)C(=O)c1c-2ccc2c1CCCC2(C)C [TANSHINONE IIA] | 95 | 79 | 85 | 72 | IC50 [6]: 48 µM; inhibition [7]: Dose-dependent effect
